Assay results published in patent publication US20240299595A1, “CANCER THERANOSTIC COMPOSITIONS COMPRISING BIGUANIDE COMPLEXES OF GROUP 7 TRANSITION METALS AND USES THEREOF” (BOARD OF REGENTS, THE UNIVERSITY OF TEXAS SYSTEM, priority 2021, published 2024).
Entries after “also recorded” stand apart in the source; their conditions may differ.

How the values were obtained:
IRGOV-1 = assay: MTT cytotoxicity, ovarian cancer cell line IRGOV-1; type: cell-based; conditions: 72 hours
Method: (§1) Finally, a comparison study of the cytotoxicity of Re-Phen and phenformin in a panel of ovarian cancer cell lines by MTT assay after a 72 hour incubation period was conducted. Ovarian cells were seeded at 5000 cells/well in 96-well plates overnight, and treated with Re-Phen or phenformin in different concentrations (from 4.57×10^−4 mM to 1.0 mM in 3-fold increase) at 37° C. for 72 hours. Cell viability was measured using the MTT assay. The absorption at 590 nm was measured at microplate reader (SpectraMax, Molecular Device, San Diego, CA) to quantify cell numbers. The proportion of cells was normalized to that of untreated cells and expressed as mean±standard error of the mean (SEM) (n=5-6). The resulting reduced viability with half-maximal inhibitory concentration (IC50) values of mM were calculated by a sigmoidal dose-response (variable slope) curve-fitting using GraphPad Prism software. The data are shown in FIG. 19A (Re-Phen) and FIG. 19B (phenformin). […] In fact, Re-Phen is shown to display >2,000-fold and >5,000-fold higher cytotoxicity against OVACAR-8 and SKOV3 (Table 2) human ovarian cancer cell lines, respectively.

A2789-cp20 = assay: MTT cytotoxicity, ovarian cancer cell line A2789-cp20; type: cell-based; conditions: 72 hours
Method: as §1

MiaPaca-2 cells = assay: Untargeted IC-MS metabolomics; type: cell-based
Method: Samples were measured by untargeted IC-MS after 12 hours of treatment (n=3).
Metabolites were extracted from lysed cells and samples were measured by untargeted IC-MS (n=3). Data are expressed as mean±SD (n=3). *p<0.05 compared to phenformin.
Following, untargeted IC-MS was used to analyze changes in cellular metabolites.

PDAC cells [1] = assay: DCFDA cellular ROS detection assay; type: cell-based; conditions: for level of reactive oxygen species (ROS): DCFDA assay, FIG. 9B
Method: Decreased fluorescence intensity measured at Ex/Em 485/535 nm indicated decreased level of ROS. Data are expressed as mean±SD (n=4). ***p<0.001 compared to vehicle (DMSO) control.
The production of intracellular reactive oxygen species (ROS) after treatments with Re-Phen and phenformin in PDAC cells was also measured (FIG. 16). DCFDA Cellular ROS Detection AssayKit (Abcam, Cambridge, MA) was used to measure Intracellular reactive oxygen species (ROS). Briefly, after seeded into 96-well plates at a cell density of 2.5×10^4 cells per well overnight, cell monolayers were washed and incubated for 45 min at 37° C. in the dark in the presence of 25 μM DCFDA diluted in serum-free adhesion medium without phenol red according to the manufacturer's instructions. Cells were then treated with compounds as indicated for 1 hour. End-point fluorescence was measured in a fluorescence microplate reader (Syneregy H1, Bio-Tek, Winooski, VT) at 485 nm excitation and 535 nm emission wavelengths.

PDAC cells [2] = assay: Seahorse mito-stress test (oxygen consumption rate); type: cell-based; conditions: 4-hour treatments, Seahorse XF24e
[3] = system: MiaPaca-2 and Kras* cells; assay: NADH-to-total NAD (NADt) ratio, colorimetric kit; type: cell-based; conditions: 100 μM, 3 hours or 12 hours
Method: Data are presented as mean±SD (n=3). *p<0.05; ***p<0.001. Vehicle (DMSO) treated cells were as controls.
Following, PDAC cells were used to measure NADH-to-total NAD (NADt) ratios. NADH-to-total NAD (NADt) ratios were measured using a colorimetric kit (Biovision, Milpitas, CA). Briefly, cells were treated for different time periods as indicated and total NAD (NADt, NAD+NADH) was extracted following manufacturer provided protocol. For each of the extracted samples, half of the sample was heated at 60° C. for 30 minutes to decompose NAD+ while keeping NADH intact. Total NAD+ and NADH level was measured without the heating steps and in the presence of NAD cycling enzyme. The ratio of NADH to NADt were calculated on absorbance measured at 450 nm with a microplate reader (SpectraMax, Molecular Device, San Diego, CA). Cells treated with the same amount of DMSO used to prepare 100 μM phenformin or Re-Phen were used as controls.

AMPK = AMPK and AMPK phosphoprotein western blotting; type: cell-based; conditions: 24 hours
Method: R-actin was used as a loading control. Cells were treated with phenformin or Re-Phenformin overnight at the indicated concentrations for 24 hours.
(§2) AMPK is a key enzyme that becomes activated under nutrient stress. Annexin V/PI double staining kit was used to detected cell death in flow cytofluorimetric analyses. […] In Kras* cell line, cells died largely of necrosis; in MiaPaca-2 cell line, cells died mostly of apoptosis.

OVCAR8 = assay: MTT cytotoxicity, ovarian cancer cell line OVCAR8; type: cell-based, human
Method: as §1

SKOV3 = assay: MTT cytotoxicity, ovarian cancer cell line SKOV3; type: cell-based, human
Method: as §1

[4] = system: PDAC cells (Kras*, MiaPaca-2); assay: Annexin V/PI flow cytometry cell death; type: cell-based; conditions: 250 μM, 24 hours, Kras* and MiaPaca-2 cell lines
Text: Vehicle (DMSO) treated cells were used as a control.
as §2

[5] = system: normal cells (RAW264.7, NIH3T3, hTERT-HPNE); assay: MTT cytotoxicity against normal cells; type: cell-based; conditions: 72 hours
Method: Next, RAW264.7 (FIG. 14A), NIH3T3 (FIG. 14B), or hTERT-HPNE (FIG. 14C) cells were seeded in 96-well plates (5000 cells/well) overnight, and treated with Re-Phen or phenformin in concentrations ranging from 4.57×10−4 mM to 1.0 mM at 37° C. for 72 hours. Cell viability was measured using the MTT assay. The proportion of cells was normalized to that of untreated cells and expressed as mean±standard error of the mean (SEM) (n=5). The half-maximal inhibitory concentration (IC50) values were calculated by a sigmoidal dose-response (variable slope) curve-fitting using GraphPad Prism software.

[6] = Re-Phen versus phenformin, Table 2

SMILES	IC50 (IRGOV-1) [µM]	IC50 (A2789-cp20) [µM]	pyrimidine nucleotide pool (MiaPaca-2 cells)	TCA cycle: level of succinate and aspartate versus vehicle (MiaPaca-2 cells; 12 h)	level of reactive oxygen species (ROS) (PDAC cells [1])	mitochondria respiration (OCR) (PDAC cells [2])	ratio of NADH to total NADt [3]	AMPK activation (AMPK)	IC50 (OVCAR8; MTT, 72 hours) [µM]	fold higher cytotoxicity against OVACAR-8 (OVCAR8; [6])	purine nucleotide pool compared to phenformin (MiaPaca-2 cells)	level of 3-phosphoglycerate (3-PG) (MiaPaca-2 cells; 100 μM, 12 h)	level of phosphoenolpyruvate (PEP) (MiaPaca-2 cells; 100 μM, 12 h)	level of glutathione (GSH) (MiaPaca-2 cells; 200 μM, 12 hours)	ROS levels in MiaPaca-2 cells (PDAC cells [1]; MiaPaca-2 cells, DCFDA, treated 1 hour, FIG. 16)	IC50 (SKOV3; MTT, 72 hours) [µM]	fold higher cytotoxicity against SKOV3 (SKOV3; [6])	induction of cell death [4]	cytotoxicity against normal cells [5]
[H]/N=C(/N)N/C(=N/[H])NCCc1ccccc1 [Phenformin, N-phenylethyl biguanide, reference compound]	380	100	decreased pyrimidine nucleotide pool	reduced level of succinate and aspartate	increased the level of ROS	suppressed mitochondria respiration	increased the ratio of NADH to total NADt; also recorded: significantly increased NADH/NADt ratio	activated AMPK	–	–	–	–	–	–	–	–	–	–	–
N=C(N)NC(=N)NCCc1ccccc1.[C-]#[O+].[C-]#[O+].[C-]#[O+].[Re+] [Re-Phen]	420	260	decreased pyrimidine nucleotide pool	reduced level of succinate and aspartate	reduced the level of reactive oxygen species (ROS)	suppressed mitochondria respiration	increased the ratio of NADH to total NADt; also recorded: significantly increased NADH/NADt ratio	activated AMPK	110	> 2,000 fold	increased purine nucleotide pool	increased the level of 3-phosphoglycerate (3-PG) more than phenformin did	suppressed the level of phosphoenolpyruvate (PEP)	increased the level of glutathione (GSH)	reduced ROS levels	35	> 5,000 fold	more potent than phenformin	generally less cytotoxic than phenformin
